Reference: patent publication US20130254944A1, “Herbicide Tolerant Soybeans and Methods of Use” (PIONEER HI BRED INTERNATIONAL INC, priority 2012, published 2013)

How the values were obtained:
Format in all cases: in vivo
[1] = system: soybean having both the Als1 and Als2 mutations; assay: Greenhouse postemergence test of ALS-inhibiting herbicides and isobole analysis, soybean with Als1 and Als2 mutations; details: for Avg response (% phytotoxicity), Trait Als1 + Als2: Table 2
Protocol: (§1) Soybean lines having wild type als1 & 2 genes, the Als1 mutation, the Als2 mutation, or both the Als1 and Als2 mutations were evaluated for their response to various herbicides. Two seeds from each line were planted into 4-inch pots containing Redi-Earth potting mix (Sun Gro Horticulture Canada Ltd. 52130 RR65, Seba Beach, Alberta TOE 2B0), with two replications planted for each treatment. Pots were placed in flats at 15 pots/flat, and the resulting plants were grown in a greenhouse environment supplemented with lighting (16 hr photoperiod) for the duration of the test. Selected herbicides representing the mode of action that inhibits the acetolactate synthase enzyme, also known as the acetohydroxyacid synthase enzyme, were applied postemergence to soybean when soybean plants were at the V2 growth stage, which is the stage at which the first two trifoliolate leaves were expanded.
(§2) Eleven active ingredients representing the five chemical families with herbicidal activity on the acetolactate synthase enzyme were tested. These herbicides can cause a phytotoxic response in wild type soybean plants. The five chemical families tested were sulfonylaminocarbonyltriazolinone (also known as triazolinone), imidazolinone, sulfonylurea, pyrimidinylthiobenzoate, and triazolopyrimidine. Application rates ranged from 0.5 times to eight times the currently labeled application rate for each active ingredient with spray application volume at 30 gallons/acre. The application rates tested were 0.5×, 1×, 2×, 4× and 8× the label rate for each herbicide. Herbicidal active ingredients were applied as formulated materials dispersed in water containing 0.25% nonionic surfactant (Trend® 90).
(§3) The test was evaluated by visually scoring plant phenotype 14 days after the herbicides were applied. Controls consisted of soybean plants of the same variety that received no herbicide treatments for each of all the varieties tested. Soybean response was recorded on a zero to 100 visual scale in which zero is no phytotoxic response and 100 is plant death fourteen days after the herbicides were applied. Soybean response (percent phytotoxicity) to postemergence applications of herbicides inhibiting the acetolactate synthase enzyme test results are shown in Table 1.
(§4) Results in Table 1 were evaluated using the isobole method for analyzing interactions. […] Here the biologically active agents that are being assessed for interaction (synergy) are gene mutations in soybean. The effectiveness of the genes in providing improved tolerance to ALS-inhibiting herbicides was assessed by applying increasing doses of herbicides to each soybean line with its mutation(s).
(§5) An isobole reduces a dose response surface in three dimensional space to a two dimensional plot by fixing a defined response level (e.g., 50% response). The isobole plot is a graph in the Cartesian plane with a straight line connecting the isoeffective rates of the individual components of the combination. This straight line represents expected responses for zero interactive combinations. The isoeffective rate used to create the isobole is often the EC50, the rate estimated to elicit 50% response, but other ECx values can be used. Since the isobole method is based on the potency of the components of the combination, an experimental design testing a range of rates expected to elicit the full range of responses (e.g., 0 to maximum response) is best. (Ferry et al. (2005) 2005 Conference on Applied Statistics in Agriculture Proceedings pp 33-50, Manhattan, Kans., Kansas State Univ.; Green and Streibig (1993) Herbicide Mixtures, pp 117-134 in Herbicide Bioassays, Streibig and Hudsk Eds, CRC, Boca Raton, Fla.).
(§6) Loglogistic dose response curves were fit to percent phytotoxicity response data using log 10 of dose (McCullagh and Nelder (1989) Generalized Linear Models, Chapman & Hall, London). Curves were fit using the logit link with normal errors. […]

wild type soybean = assay: Greenhouse postemergence test of ALS-inhibiting herbicides, wild type soybean
Protocol: as §1, §2, §3

[2] = system: soybean having the Als2 mutation; assay: Greenhouse postemergence test of ALS-inhibiting herbicides, soybean with Als2 mutation; details: for Avg response (% phytotoxicity), Trait Als2: Table 2
Protocol: as §1, §2, §3, §4, §5, §6

[3] = system: soybean having the Als1 mutation; assay: Greenhouse postemergence test of ALS-inhibiting herbicides, soybean with Als1 mutation; details: for Avg response (% phytotoxicity), Trait Als1: Table 2
Protocol: as §1, §2, §3, §4, §5, §6

[4] = 17.5 g ai/ha postemergence at V2, scored 14 days after application
[5] = 35 g ai/ha postemergence at V2, scored 14 days after application
[6] = 70 g ai/ha postemergence at V2, scored 14 days after application
[7] = 140 g ai/ha postemergence at V2, scored 14 days after application
[8] = 280 g ai/ha postemergence at V2, scored 14 days after application
[9] = rate of herbicide estimated to cause 10% phytotoxic response, loglogistic fit
[10] = 8.75 g ai/ha postemergence at V2, scored 14 days after application
[11] = rate of herbicide estimated to cause 50% phytotoxic response, loglogistic fit

| Compound | Soybean response (percent phytotoxicity), Als1 + Als2 [1, 4] [%] | Avg response (% phytotoxicity), Trait Als1 + Als2 ([1]; 17.5 g ai/ha) [%] | Soybean response (percent phytotoxicity), Als1 + Als2 [1, 5] [%] | Avg response (% phytotoxicity), Trait Als1 + Als2 ([1]; 35 g ai/ha) [%] | Soybean response (percent phytotoxicity), Als1 + Als2 [1, 6] [%] | Avg response (% phytotoxicity), Trait Als1 + Als2 ([1]; 70 g ai/ha) [%] | Soybean response (percent phytotoxicity), Als1 + Als2 [1, 7] [%] | Avg response (% phytotoxicity), Trait Als1 + Als2 ([1]; 140 g ai/ha) [%] | Soybean response (percent phytotoxicity), Wild type (wild type soybean; [4]) [%] | Soybean response (percent phytotoxicity), Wild type (wild type soybean; [5]) [%] | Soybean response (percent phytotoxicity), Wild type (wild type soybean; [6]) [%] | Soybean response (percent phytotoxicity), Wild type (wild type soybean; [7]) [%] | Soybean response (percent phytotoxicity), Als2 [2, 4] [%] | Avg response (% phytotoxicity), Trait Als2 ([2]; 17.5 g ai/ha) [%] | Soybean response (percent phytotoxicity), Als2 [2, 5] [%] | Avg response (% phytotoxicity), Trait Als2 ([2]; 35 g ai/ha) [%] | Soybean response (percent phytotoxicity), Als2 [2, 6] [%] | Avg response (% phytotoxicity), Trait Als2 ([2]; 70 g ai/ha) [%] | Soybean response (percent phytotoxicity), Als2 [2, 7] [%] | Avg response (% phytotoxicity), Trait Als2 ([2]; 140 g ai/ha) [%] | other results |
| --- | --- | --- | --- | --- | --- | --- | --- | --- | --- | --- | --- | --- | --- | --- | --- | --- | --- | --- | --- | --- | --- |
| COc1nn(C(=O)NS(=O)(=O)c2ccccc2OC(F)(F)F)c(=O)n1C [Flucarbazone] | 0 | 0 | 0 | 0 | 0 | 0 | 0 | 0 | 60 | 80 | 90 | 98 | 5 | 5 | 15 | 30 | 20 | 50 | 25 | 55 | Soybean response (percent phytotoxicity), Als1 + Als2 [1, 8]: 0%; Avg response (% phytotoxicity), Trait Als1 + Als2 ([1]; 280 g ai/ha): 0%; EC10, Als1 + Als2 [1, 9]: >280 g ai/ha; Soybean response (percent phytotoxicity), Wild type (wild type soybean; [8]): 98%; Soybean response (percent phytotoxicity), Als2 [2, 8]: 30%; Avg response (% phytotoxicity), Trait Als2 ([2]; 280 g ai/ha): 60%; EC10, Als2 [2, 9]: 8.14 g ai/ha; Soybean response (percent phytotoxicity), Als1 [3, 4]: 0%; Avg response (% phytotoxicity), Trait Als1 ([3]; 17.5 g ai/ha): 0%; Soybean response (percent phytotoxicity), Als1 [3, 5]: 0%; Avg response (% phytotoxicity), Trait Als1 ([3]; 35 g ai/ha): 0%; Soybean response (percent phytotoxicity), Als1 [3, 6]: 5%; Avg response (% phytotoxicity), Trait Als1 ([3]; 70 g ai/ha): 5%; Soybean response (percent phytotoxicity), Als1 [3, 7]: 10%; Avg response (% phytotoxicity), Trait Als1 ([3]; 140 g ai/ha): 10%; Soybean response (percent phytotoxicity), Als1 [3, 8]: 10%; Avg response (% phytotoxicity), Trait Als1 ([3]; 280 g ai/ha): 10%; EC10, Als1 [3, 9]: 230.45 g ai/ha |
| CC(C)C1(C)N=C(c2ncccc2C(=O)O)NC1=O (stereo not shown) [Imazapyr] | 0 | 0 | 0 | 0 | 40 | 40 | 55 | 55 | 40 | 75 | 90 | 98 | 20 | 20 | 25 | 25 | 50 | 50 | 55 | 55 | Soybean response (percent phytotoxicity), Als1 + Als2 [1, 10]: 0%; Avg response (% phytotoxicity), Trait Als1 + Als2 ([1]; 8.75 g ai/ha): 0%; EC50, Als1 + Als2 [1, 11]: 112.81 g ai/ha; Soybean response (percent phytotoxicity), Wild type (wild type soybean; [10]): 10%; Soybean response (percent phytotoxicity), Als2 [2, 10]: 5%; Avg response (% phytotoxicity), Trait Als2 ([2]; 8.75 g ai/ha): 5%; EC50, Als2 [2, 11]: 93.91 g ai/ha; Soybean response (percent phytotoxicity), Als1 [3, 10]: 0%; Avg response (% phytotoxicity), Trait Als1 ([3]; 8.75 g ai/ha): 0%; Soybean response (percent phytotoxicity), Als1 [3, 4]: 10%; Avg response (% phytotoxicity), Trait Als1 ([3]; 17.5 g ai/ha): 10%; Soybean response (percent phytotoxicity), Als1 [3, 5]: 45%; Avg response (% phytotoxicity), Trait Als1 ([3]; 35 g ai/ha): 45%; Soybean response (percent phytotoxicity), Als1 [3, 6]: 80%; Avg response (% phytotoxicity), Trait Als1 ([3]; 70 g ai/ha): 80%; Soybean response (percent phytotoxicity), Als1 [3, 7]: 98%; Avg response (% phytotoxicity), Trait Als1 ([3]; 140 g ai/ha): 98%; EC50, Als1 [3, 11]: 38.86 g ai/ha |
